Counter-ions that a name gives are not always drawn.
Legend:
[1] = system: human AT1aR; assay: Intracellular calcium measurement, receptor desensitization; assay type: cell-based; conditions: AngII-induced calcium signal
Description: Intracellular [Ca^2+] release was measured using FLIPR Calcium 6 with the FlexStation 3 microplate reader according to the manufacturer's instructions (Molecular Devices, LLC). Briefly, HEK293 cells stably expressing human AT1aR were seeded in poly-D-lysine-coated black 96-well assay plates (35,000 cells per well) and incubated for 24 hours. On the day of experiment, cell plates were loaded with the appropriate calcium kit reagents and then treated with βarr small molecule modulators or vehicle for 30 min. Basal fluorescence (FO) was measured, agonist was applied while fluorescence (F) intensity was monitored in real time.

[2] = molecular target: βarr2 (Rattus norvegicus, UniProt P29067); assay: Binding affinity (Kd) by ITC / thermal shift; set-up: made in house; conditions: Cmpd-30 by ITC; other three by combination of ITC and thermal shift; read-out: Kd (dissociation constant), βarr2
Sequence of βarr2 (P29067 whole entry): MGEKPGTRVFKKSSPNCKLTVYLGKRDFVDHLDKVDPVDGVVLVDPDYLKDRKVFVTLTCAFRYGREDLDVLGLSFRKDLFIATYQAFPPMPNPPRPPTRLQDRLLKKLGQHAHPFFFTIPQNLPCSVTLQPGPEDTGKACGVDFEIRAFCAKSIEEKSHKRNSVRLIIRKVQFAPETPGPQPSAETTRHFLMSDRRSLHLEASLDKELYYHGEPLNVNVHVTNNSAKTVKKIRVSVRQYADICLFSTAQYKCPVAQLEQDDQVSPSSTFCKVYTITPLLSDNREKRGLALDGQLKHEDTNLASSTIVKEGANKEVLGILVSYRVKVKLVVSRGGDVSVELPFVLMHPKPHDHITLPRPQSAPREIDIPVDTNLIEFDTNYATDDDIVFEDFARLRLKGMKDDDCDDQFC
Description: A high-throughput differential scanning fluorimetry-based thermal shift screen was developed to identify potential βarr small-molecule modulators present in the collection of structurally diverse, drug-like small-molecule compound library described above. The screen was performed using the StepOnePlus™ Real-Time PCR System (Applied Biosystems, Foster City, Calif.). Melting temperature changes were monitored with the use of a reporter fluorescent probe, SYPRO Orange (Thermo Fisher Scientific). Proteins were buffered in a 20 mM HEPES pH 7.5, 100 mM NaCl solution. All reactions were set up in a 96-well plate at final volumes of 20 μl. Small-molecule test compounds were plated from DMSO stock solutions into 96 well plates (1 compound/well) at a final compound concentration of 100 μM. The final DMSO concentration per well was 1%. βarr1 or βarr2 final concentration was maintained at 5 μM per well. Vehicle (DMSO), negative, and positive controls were also included in each plate. Negative controls contained SYPRO Orange in buffer by itself (no βarr protein). Three known βarr binders were individually tested under described assay conditions: ‘V2Rpp’, a phosphorylated peptide corresponding to the C-terminus of the vasopressin-2 receptor (V2R); Fab30, an antigen-binding fragment that recognizes V2Rpp bound active βarr conformation; and inositol hexakisphosphate (IP6). […]. […] The temperature was raised with a step of 0.5° C. per 30 second from 25° C. to 99° C. and fluorescence readings were taken at each interval. Melting curves were directly exported from the instrument and were analyzed using Applied Biosystems® Protein Thermal Shift™ Software. Melting temperature (Tm) was calculated by plotting the first derivative of the fluorescence emission as a function of temperature [−dF/dT]. […]
ITC measurements were made using the MicroCal iTC200 system (MicroCal, Malvern, Pa.). […] Data were analyzed using MicroCal Origin software program to obtain association constant (Ka=1/Kd), stoichiometry (N), and thermodynamic parameters such as enthalpy (ΔH) and entropy (ΔS) of binding.

[3] = system: ERK1/2; assay: Live cell ERK1/2 activation assay (HEK293 cells stably expressing β2AR); assay type: cell-based; conditions: for βarr1/2-dependent ERK activation through β2-adrenergic receptor: carvedilol stimulation after compound pretreatment
Description: To assess the effect(s) of βarr small-molecule modulators on receptor-stimulated β-arr dependent ERK1/2 activation, HEK293 cells stably expressing β2AR plates were starved for 6 hours in serum-free medium prior to stimulation (Wisler, J. W. et al. A unique mechanism of beta-blocker action: carvedilol stimulates beta-arrestin signaling. Proc Natl Acad Sci USA 104, 16657-16662, doi:10.1073/pnas.0707936104 (2007); Wang, J. et al. Galphai is required for carvedilol-induced beta1 adrenergic receptor beta-arrestin biased signaling. Nat Commun 8, 1706, doi:10.1038/s41467-017-01855-z (2017)). Cells were pretreated with βarr small-molecule modulators or vehicle, then incubated for 30 min at 37° C. After stimulation with appropriate receptor ligand (carvedilol or isoproterenol) for indicated time points, reactions were terminated by the addition of Laemmli sample buffer. The cell lysates were sonicated for 15 sec (2×) and clarified by centrifugation 14,000×g (4° C., 15 min). Proteins were resolved on an SDS-PAGE gel, transferred to nitrocellulose membranes, and immunoblotted using rabbit polyclonal anti-phospho-p44/42 MAPK (ERK1/2) antibody (1:2000; Cell Signaling), anti-MAPK1/2 (ERK1/2) antibody (1:10,000; Millipore-Sigma), anti-β-arrestin1 antibody (A1CT; 1:3000) or anti-β-arrestin2 antibody (A1CT; 1:3000, Lefkowitz lab, Duke University). Protein bands on the membrane were detected with SuperSignal West Pico enhanced chemiluminescent substrate (Thermo Fisher) and captured using a ChemiDoc-XRS charge-coupled device camera system (Bio-Rad Laboratories). Bands were quantified by densitometry using Image Lab (Bio-Rad, Hercules, Calif.) and GraphPad Prism software was used for data analyses.
For experiments involving siRNA transfection and knockdown βarrs, after stimulation cells were lysed in ice-cold 1% NP-40 lysis buffer [20 mM tris-HCl (pH 7.4), 137 mM NaCl, 20% glycerol, 1% NP-40, 2 mM sodium orthovanadate, 1 mM phenylmethylsulfonyl fluoride, 10 mM sodium fluoride, aprotinin (10 μg/ml), leupeptin (5 μg/ml), and phosphatase inhibitors (Phos-STOP; Roche)], rotated for 45 min, and cleared of insoluble debris by centrifugation at 14,000×g (4° C., 15 min). After which the supernatant was collected, protein concentration determined, and equal amounts of cell lysate were mixed with 2×Laemmli sample buffer. Samples were analyzed afterwards essentially as described above.

`C=C1C(=O)OC2CC3(C)OC3CC/C(C)=C\C(OC(C)=O)C12` (stereo not drawn) [Cmpd-64, [(8Z)-3,8-dimethyl-12-methylidene-13-oxo-4,14-dioxatricyclo[9.3.0.03,5]tetradec-8-en-10-yl] acetate] was tested, and the “desensitization of AT1aR” value [1] was “inhibited”, the Kd [2] was 104 nM and the “βarr1/2-dependent ERK activation through β2-adrenergic receptor” value [3] was “attenuate”.
For `CN(C)c1n/c(=N/Cc2ccco2)ss1` [Cmpd-30, 5-(furan-2-ylmethylimino)-N,N-dimethyl-1,2,4-dithiazol-3-amine;hydrobromide], the “desensitization of AT1aR” value [1] was “inhibited”, the Kd [2] was 2 nM and the EC50 ([3]; Homo sapiens, HEK293, βarr-dependent but receptor-independent) was 500 nM. For the same compound, the “basal phosphorylation of ERK1/2” value ([3]; compound alone, absent of agonist) was “increased”, the “time of peak ERK activation signal” value ([3]; compound alone, decline observed at 30 minutes) was 15 to 20 min and the “compound-induced ERK1/2 phosphorylation after knockdown of βarr1/2” value ([3]; βarr1/2 siRNA vs control siRNA) was “markedly impaired”.
In the case of `C=C1C(=O)C23[C@H](O)C1CC[C@H]2[C@]12COC3(O)[C@@H](O)[C@@H]1C(C)(C)CC[C@@H]2O` [Cmpd-5, (1R,2S,10S,11R,15S,18R)-9,10,15,18-tetrahydroxy-12,12-dimethyl-6-methylidene-17-oxapentacyclo[7.6.2.15,8.01,11.02,8]octadecan-7-one], the “desensitization of AT1aR” value [1] is reported as “inhibited”, the Kd [2] is reported as 261 nM and the “βarr1/2-dependent ERK activation through β2-adrenergic receptor” value [3] is reported as “attenuate”.
